These results are taken from ChEMBL document CHEMBL1158910, “The gastric cytoprotective effect of several sesquiterpene lactones” (J Nat Prod, 1990).

Assay [1] deals with Rattus norvegicus. Put plainly: Antiulcerogenic activity in Wistar rat assessed as cytoprotection against ethanol-induced gastric lesions at 40 mg/kg administered 60 mins before ethanol challenge. Format: functional, organism-based. Details: dose 40 mg/kg. The conditions noted are these: Stomach.
Assay [2] concerns Rattus norvegicus. As to the kind of experiment: Antiulcerogenic activity in Wistar rat assessed as cytoprotection against ethanol-induced gastric lesions administered 60 mins before ethanol challenge. Type of assay: functional, organism-based. The conditions noted are these: Stomach.

Active and inactive are the calls of the source. No cut-off for these calls is given here.

As to `C=C1C(=O)O[C@@H]2[C@H]3C(=C)[C@@H](O)C[C@H]3C(=C)C[C@H](OC(=O)/C(C)=C\C)[C@@H]12`, in the assay with Rattus norvegicus [1], the outcome was Active.
With `C=C1C(=O)O[C@@H]2[C@H]3C(C)=CC(=O)C3=C(C)CC[C@@H]12`, the Activity result with Rattus norvegicus [2] is “Dose-dependent effect”. For the same compound, the result with Rattus norvegicus [1] was Active.
For the compound `C=C1C(=O)O[C@H]2C[C@@H](C)[C@@H]3C=CC(=O)[C@@]3(C)[C@H](O)[C@H]12`, the outcome with Rattus norvegicus [1] was Active.
For `CC1=CC(=O)C2=C(C)CC[C@@H]3[C@H](OC(=O)[C@H]3C)[C@@H]12`, in the assay with Rattus norvegicus [1], the outcome was inactive.
Consider `C=C1C(=O)O[C@H]2[C@H](O)[C@@H](C)[C@@H]3[C@@H](OC(=O)/C(C)=C\C)C[C@H](O)[C@@]3(C)[C@H](OC(C)=O)[C@H]12`, for which, in the assay on Rattus norvegicus [1], the outcome was Active.
On to `C=C1C(=O)O[C@H]2[C@H]1CCC(C)=C1C[C@H]3O[C@@]3(C)[C@@H]12`, for which the result in the assay with Rattus norvegicus [1] was Active.
Regarding `C=C1C(=O)O[C@@H]2[C@H]1CC[C@H](C)[C@@]1(O)C=CC(=O)[C@@]21C`, in the assay with Rattus norvegicus [2], the Activity entry is “Dose-dependent effect”. Further, the outcome in the assay on Rattus norvegicus [1] was Active.
Turning to `C=C1C(=O)O[C@@H]2C[C@@H](C)[C@@H]3C=CC(=O)[C@@]3(C)[C@@H](O)[C@H]12`, in the assay with Rattus norvegicus [1], the outcome was Active.
